Data from patent US10131652B2, “Pyrimidinyloxy benzene derivatives as herbicides” (E. I. DU PONT DE NEMOURS AND COMPANY, priority 2014, dated 2018).
Like-named read-outs stand apart in the source and are kept apart here.

What was measured:
Format in all cases: in vivo
[1] = system: small-flower umbrella sedge (Cyperus difformis); experiment: Test C flooded paddy test plant response; conditions: Cyperus difformis; Flood, 250 g ai/ha; scale of 0 to 100 where 0 is no effect and 100 is complete control; 13 to 15 days; read-out: Sedge, Umbrella plant response rating
Summary of the method: (§1)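 Water-applied treatment: compounds go directly into floodwater standing 3 cm over the soil of pots holding 2-leaf-stage plants. Depth is kept constant; plants stay in a greenhouse 13 to 15 days before visual comparison with controls on a 0–100 scale.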

[2] = system: barnyardgrass (Echinochloa crus-galli); experiment: Test C flooded paddy test plant response; conditions: Echinochloa crus-galli; Flood, 250 g ai/ha; scale of 0 to 100 where 0 is no effect and 100 is complete control; 13 to 15 days; read-out: Barnyardgrass plant response rating
Summary of the method: as §1

[3] = system: ducksalad (Heteranthera limosa); experiment: Test C flooded paddy test plant response; conditions: Heteranthera limosa; Flood, 250 g ai/ha; scale of 0 to 100 where 0 is no effect and 100 is complete control; 13 to 15 days; read-out: Ducksalad plant response rating
Summary of the method: as §1

rice (Oryza sativa) = experiment: Test C flooded paddy test plant response; conditions: Oryza sativa; Flood, 250 g ai/ha; scale of 0 to 100 where 0 is no effect and 100 is complete control; 13 to 15 days; read-out: Rice plant response rating
Summary of the method: as §1

[4] = system: chickweed (common chickweed, Stellaria media); experiment: Test D postemergence plant response; conditions: Stellaria media, post-emergence
Summary of the method: (§2)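 Plants grown in pots of peat moss–vermiculite medium with wetting agent and starter nutrients received postemergence applications of the formulated test chemicals at 2 to 18 cm height (1- to 4-leaf stage). After 13 to 15 days in a greenhouse, injury was scored visually against untreated controls, 0 (no effect) to 100 (complete control).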

kochia (Kochia scoparia) = experiment: Test D postemergence plant response; conditions: Bassia scoparia, post-emergence
Summary of the method: as §2

wild oat (Avena fatua) = experiment: Test D postemergence plant response; conditions: Avena fatua, post-emergence
Summary of the method: as §2

soybean (Glycine max) = experiment: Test D pre-/postemergence plant response; conditions: Glycine max; for plant injury at 16 g/ha: 16 g ai/ha; for plant injury at 31 g/ha: 31 g ai/ha; for plant injury at 62 g/ha: 62 g ai/ha; for plant injury at 125 g/ha: 125 g ai/ha
Summary of the method: (§3)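 Pre-/post-emergence greenhouse test. Pre: seeded loam+sand, sprayed same day. Post: 1–4 leaf plants (2–18 cm), peat/vermiculite mix. Formulation: non-phytotoxic solvent + surfactant. Scored visually d13–15, 0–100 vs control.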

[5] = system: yellow nutsedge (Cyperus esculentus); experiment: Test D pre-/postemergence plant response; conditions: Cyperus; for pest or weed control at 16 g/ha: 16 g ai/ha; for pest or weed control at 31 g/ha: 31 g ai/ha; for pest or weed control at 62 g/ha: 62 g ai/ha; for pest or weed control at 125 g/ha: 125 g ai/ha
Summary of the method: as §3

[6] = system: johnsongrass (Sorghum halepense); experiment: Test D pre-/postemergence plant response; conditions: Sorghum halepense, post-emergence, Postemergence
Summary of the method: as §3

[7] = post-emergence, Postemergence, scale 0 to 100 (0 no effect, 100 complete control), read-out: Soybean plant response rating
[8] = post-emergence, Postemergence, scale 0 to 100, 0 no effect, 100 complete control, read-out: Plant response rating, Soybean
[9] = pre-emergence, Preemergence, scale 0 to 100 (0 no effect, 100 complete control), read-out: Plant response rating, Soybean
[10] = post-emergence, Postemergence, scale 0 to 100 (0 no effect, 100 complete control), read-out: Nutsedge, Yellow plant response rating
[11] = post-emergence, Postemergence, scale 0 to 100, 0 no effect, 100 complete control, read-out: Plant response rating, Nutsedge, Yellow
[12] = pre-emergence, Preemergence, scale 0 to 100 (0 no effect, 100 complete control), read-out: Plant response rating, Nutsedge, Yellow

SMILES: Fc1cccc(Oc2ncc(Cl)cn2)c1-c1cc(C(F)F)on1 [Compound 55, 5-chloro-2-[2-[5-(difluoromethyl)-3-isoxazolyl]-3-fluorophenoxy]pyrimidine]
- pest or weed control at 250 g/ha [1]: 90%
- pest or weed control at 250 g/ha [2]: 25%
- pest or weed control at 250 g/ha [3]: 100%
- plant injury at 250 g/ha (rice (Oryza sativa)): 25%
- pest or weed control at 16 g/ha ([4]; 16 g ai/ha, scale 0 to 100 (0 no effect, 100 complete control), read-out: Chickweed plant response rating): 70%
- pest or weed control at 31 g/ha ([4]; 31 g ai/ha, scale 0 to 100 (0 no effect, 100 complete control), read-out: Chickweed plant response rating): 75%
- pest or weed control at 62 g/ha ([4]; 62 g ai/ha, scale 0 to 100, 0 no effect, 100 complete control, read-out: Plant response rating, Chickweed): 98%
- pest or weed control at 125 g/ha ([4]; 125 g ai/ha, scale 0 to 100, 0 no effect, 100 complete control, read-out: Plant response rating, Chickweed): 100%
- pest or weed control at 16 g/ha (kochia (Kochia scoparia); 16 g ai/ha, scale 0 to 100 (0 no effect, 100 complete control), read-out: Kochia plant response rating): 98%
- pest or weed control at 31 g/ha (kochia (Kochia scoparia); 31 g ai/ha, scale 0 to 100 (0 no effect, 100 complete control), read-out: Kochia plant response rating): 100%
- pest or weed control at 62 g/ha (kochia (Kochia scoparia); 62 g ai/ha, scale 0 to 100, 0 no effect, 100 complete control, read-out: Plant response rating, Kochia): 100%
- pest or weed control at 125 g/ha (kochia (Kochia scoparia); 125 g ai/ha, scale 0 to 100, 0 no effect, 100 complete control, read-out: Plant response rating, Kochia): 100%
- pest or weed control at 16 g/ha (wild oat (Avena fatua); 16 g ai/ha, scale 0 to 100 (0 no effect, 100 complete control), read-out: Oat, Wild plant response rating): 5%
- pest or weed control at 31 g/ha (wild oat (Avena fatua); 31 g ai/ha, scale 0 to 100 (0 no effect, 100 complete control), read-out: Oat, Wild plant response rating): 15%
- pest or weed control at 62 g/ha (wild oat (Avena fatua); 62 g ai/ha, scale 0 to 100, 0 no effect, 100 complete control, read-out: Plant response rating, Oat, Wild): 40%
- pest or weed control at 125 g/ha (wild oat (Avena fatua); 125 g ai/ha, scale 0 to 100, 0 no effect, 100 complete control, read-out: Plant response rating, Oat, Wild): 40%
- plant injury at 16 g/ha (soybean (Glycine max); [7]): 65%
- plant injury at 31 g/ha (soybean (Glycine max); [7]): 75%
- plant injury at 62 g/ha (soybean (Glycine max); [8]): 90%
- plant injury at 125 g/ha (soybean (Glycine max); [8]): 95%
- plant injury at 125 g/ha (soybean (Glycine max); pre-emergence, Preemergence, read-out: Plant response rating (scale 0 to 100), Soybean): 98%
- plant injury at 16 g/ha (soybean (Glycine max); [9]): 25%
- plant injury at 31 g/ha (soybean (Glycine max); [9]): 35%
- plant injury at 62 g/ha (soybean (Glycine max); [9]): 95%
- pest or weed control at 16 g/ha [5, 10]: 0%
- pest or weed control at 31 g/ha [5, 10]: 5%
- pest or weed control at 62 g/ha [5, 11]: 5%
- pest or weed control at 125 g/ha [5, 11]: 5%
- pest or weed control at 125 g/ha ([5]; pre-emergence, Preemergence, read-out: Plant response rating (scale 0 to 100), Nutsedge, Yellow): 70%
- pest or weed control at 16 g/ha [5, 12]: 0%
- pest or weed control at 31 g/ha [5, 12]: 10%
- pest or weed control at 62 g/ha [5, 12]: 55%
- pest or weed control at 16 g/ha ([6]; 16 g ai/ha, scale 0 to 100 (0 no effect, 100 complete control), read-out: Johnsongrass plant response rating): 5%
- pest or weed control at 31 g/ha ([6]; 31 g ai/ha, scale 0 to 100 (0 no effect, 100 complete control), read-out: Johnsongrass plant response rating): 5%
- pest or weed control at 62 g/ha ([6]; 62 g ai/ha, scale 0 to 100, 0 no effect, 100 complete control, read-out: Plant response rating, Johnsongrass): 10%
- pest or weed control at 125 g/ha ([6]; 125 g ai/ha, scale 0 to 100, 0 no effect, 100 complete control, read-out: Plant response rating, Johnsongrass): 15%
